Data as given in publication PMC7580834, “Inhibition mechanism of naphthylphenylamine derivatives acting on the CDC25B dual phosphatase and analysis of the molecular processes involved in the high cytotoxicity exerted by one selected derivative in melanoma cells” (Journal of Enzyme Inhibition and Medicinal Chemistry, 2020).
“Also recorded” adds a separate entry of the source.

How the values were obtained:
[1] = tested on: caspase-3 in A2058 cells; test: Caspase-3 fluorimetric activity assay in cell lysates; assay type: cell-based, human; settings: 10 µM, 24 h
Description: (§1) The caspase-3 and caspase-9 enzymatic activity was measured by using caspase-3 and -9 fluorimetric assay kits, respectively, according to the manufacturer’s protocol. Briefly, cells were seeded into 75 cm^2 plates (2 × 10^6 cells/plate) and after 24 h treated with 4a or 0.5% (v/v) DMSO for 24 h. At the end of incubation, cells were collected, washed with phosphate-buffered saline constituted by 10 mM Na2HPO4, 2 mM KH2PO4, pH 7.4, supplemented with 137 mM NaCl and 2.7 mM KCl (PBS), and finally lysed at 4 °C in the cell lysis buffer. Cell lysates were incubated with 50 µM DEVD-AFC or LEHD-AFC substrates at 37 °C for 2 h, to detect caspase-3 or caspase-9 activity, respectively, using a Cary Eclipse spectrofluorimeter. Excitation and emission wavelengths were set at 400 nm and 505 nm, respectively; both excitation and emission slits were set at 10 nm.

[2] = tested on: caspase-3 in A375 cells; test: as above; assay type: cell-based, human; settings: 10 µM, 24 h
Description: as §1

[3] = tested on: A375 cells; test: Western blotting of total cell extracts (CDC25A, -B, -C, p53, pAkt); assay type: cell-based, human; settings: 10 µM
Description: (§2) To obtain the total protein extract, cells were seeded into 6-well-plates (3 × 10^5 cells/plate) for 24 h at 37 °C and then treated with 4a or 0.5% (v/v) DMSO. After treatment, cells were harvested, washed with PBS, and then lysed in ice-cold modified radio immunoprecipitation assay (RIPA) buffer (50 mM Tris•HCl, pH 7.4, 150 mM NaCl, 1% Nonidet P-40, 0.25% sodium deoxycholate, 1 mM Na3VO4 and 1 mM NaF), supplemented with protease inhibitors and incubated for 30 min on ice. The supernatant, obtained after centrifugation at 13200 g for 30 min at 4 °C, constituted the total protein extract. Protein concentration was determined by the Bradford method, using bovine serum albumin (BSA) as standard. To obtain the cytosolic and mitochondrial fractions, cells were plated at a density of 2 × 10^6 cells/plate for 24 h at 37 °C. After the treatment with 4a or 0.5% (v/v) DMSO, cells were harvested, washed in PBS, and then resuspended in buffer A (5 mM Hepes, pH 7.4, 250 mM mannitol, 0.5 mM EGTA, 0.1% BSA), supplemented with protease inhibitors, and homogenised. The homogenate was centrifuged at 600 g for 5 min at 4 °C and the supernatant was then centrifuged at 10300 g for 10 min at 4 °C. The resulting supernatant represented the cytosolic fraction, whereas the pellet, constituting the mitochondrial fraction was resuspended in RIPA buffer. Protein concentration was determined as previously indicated. Equal amounts of total, cytosolic or mitocondrial protein extracts were used for Western blotting analysis. Briefly, protein samples were dissolved in SDS-reducing loading buffer, run on sodium dodecylsulfate polyacrylamide gel electrophoresis (SDS/PAGE), and then transferred to Immobilon P membrane (Millipore, Saint Louis, MO, USA). The filter was incubated with the specific primary antibody at 4 °C overnight and then with the secondary antibody at room temperature for 1 h. Membranes were then analysed by an enhanced chemiluminescence reaction using WesternBright ECL (Advansta, San Jose, CA, USA) according to manufacturer’s instructions; signals were visualised by autoradiography. The analysis of pAkt protein levels was performed as previously described. Briefly, filters were first incubated with the anti-pAkt primary antibody and then with the secondary antibody and membranes were analysed by an enhanced chemiluminescence reaction as previously indicated. The same filters were then stripped, using AbCam (Cambridge, UK) stripping solution, pH 2 (200 mM glycine, 3.5 mM SDS, 1% Tween-20) at 45 °C for 30 min, washed 3 times with PBS-Tween 0.1%, incubated with anti-Akt primary antibody and then with the relative secondary antibody. Signals were detected as previously specified.

[4] = tested on: A2058 and A375 melanoma cell lines; design: method as in PMID 31294975; settings: 10 µM; cited from earlier work
[5] = target: T1, CDC25B (Homo sapiens, UniProt P30305); test: Kinetic studies of CDC25B phosphatase inhibition (OMFP substrate); assay type: biochemical; settings: putative from Lineweaver-Burk plots (ref 18), confirmed by the fluorescence studies of this work
T1 sequence (P30305 1-580): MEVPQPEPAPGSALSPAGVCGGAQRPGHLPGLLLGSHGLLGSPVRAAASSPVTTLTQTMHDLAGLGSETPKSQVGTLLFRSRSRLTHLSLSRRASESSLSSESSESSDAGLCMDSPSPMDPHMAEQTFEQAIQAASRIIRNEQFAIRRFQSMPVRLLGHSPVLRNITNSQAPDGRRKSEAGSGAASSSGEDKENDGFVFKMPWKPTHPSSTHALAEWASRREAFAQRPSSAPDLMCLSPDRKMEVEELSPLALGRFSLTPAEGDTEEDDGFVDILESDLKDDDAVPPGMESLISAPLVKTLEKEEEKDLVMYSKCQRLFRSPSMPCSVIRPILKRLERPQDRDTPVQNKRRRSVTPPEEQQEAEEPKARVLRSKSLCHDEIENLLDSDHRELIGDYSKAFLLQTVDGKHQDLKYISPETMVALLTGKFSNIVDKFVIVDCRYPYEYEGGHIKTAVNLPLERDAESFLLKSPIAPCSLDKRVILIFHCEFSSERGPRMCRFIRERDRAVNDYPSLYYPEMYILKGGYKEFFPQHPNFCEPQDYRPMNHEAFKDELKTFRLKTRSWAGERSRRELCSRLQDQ

[6] = tested on: cytochrome c in A375 cells; test: Cytochrome c subcellular localisation (immunofluorescence and Western blotting of fractions); assay type: cell-based, human; settings: 10 µM, 24 h
Description: as §2
(§3) Immunofluorescence experiments were carried out essentially as previously described. […]

[7] = tested on: cytochrome c in A2058 cells; test: as above; assay type: cell-based, human; settings: 10 µM, 24 h
Description: as §2, §3

Inhibition mechanism [5]: uncompetitive
Compound: CCOC(=O)c1cccc(Nc2cc(OC)cc3ccccc23)c1 [4a]
enzymatic activity of caspase-3 [1]: statistically significant increase
enzymatic activity of caspase-3 [2]: statistically significant increase
p53 protein levels ([3]; 16- and 24-h): clear and significant increase
pAkt protein levels ([3]; 30-min): significant and early decrease
CDC25A, -B and -C protein levels ([3]; essentially after 24- and 48-h): reduction of protein levels of all three forms
cell cycle of melanoma cells [4]: arrest of cells in G2/M phase; also recorded: arrest in the G2/M phase; also recorded: arrested the cell cycle of melanoma cells in G2/M phase
cell growth of melanoma cells [4]: reduced the cell growth rate; also recorded: significantly reduced; also recorded: significant antiproliferative action
pCDK1 protein levels [4]: increase
cytochrome c localisation, Western blotting of cytosolic and mitochondrial extracts [6]: significant cytosolic translocation
cytochrome c localisation, immunofluorescence [6]: induces a cytosolic translocation of cytochrome c
cytochrome c localisation, Western blotting of cytosolic and mitochondrial extracts [7]: significant cytosolic translocation
cytochrome c localisation, immunofluorescence [7]: induces a cytosolic translocation of cytochrome c
